# Assay results as given in patent publication US10897901B2, “Herbicidal composition” (FMC Corporation, priority 2007, dated 2021).
# Legend:
# Assay type in all cases: in vivo
# [1] = test system: Blackseed Plantain (Plantago rugelii); experiment: Example 1 post-emergent turf plot test, plantain; conditions: 0.75 lb ai/acre
# Experimental: (§1) The experimental design used randomized plots with post-emergent treatment and three replications per test trial. The size of each experimental plot was 4 feet by 6 feet. The application of each test composition was performed with pressurized back-pack sprayers, calibrated to spray 200 gallons per acre. Test compositions containing sulfentrazone (DISMISS™ Turf Herbicide), quniclorac, (FACET® 75 DF herbicide) or a mixture of sulfentrazone and quinclorac in a 1:3 ratio, prepared as described above, were diluted with water to provide the appropriate test rate concentrations.
# (§2) The control of weeds was evaluated in each experimental plot from 7 to 41 days after treatment (DAT) of each test rate. The results, shown as an average of the replications, were compared with results observed in untreated control plots in the same trials.
# [2] = test system: Field Violet (Viola arvensis); experiment: Example 1 post-emergent turf plot test, violet; conditions: 0.75 lb ai/acre
# Experimental: as §1, §2
# [3] = test system: Blackseed Plantain (Plantago rugelii); experiment: Example 2 post-emergent turf plot test, plantain; conditions: 0.75 lb ai/acre
# Experimental: as §1, with “quinclorac,” for “quniclorac,”, “one to three” for “1:3”
# The control of weeds was evaluated in each experimental plot from 1 to 27 days after treatment (DAT) of each test rate. The results, shown as an average of the replications, were compared with results observed in untreated control plots in the same trials.
# [4] = test system: Red River crabgrass (Digitaria ciliaris); experiment: Example 3 post-emergence greenhouse pot test, crabgrass
# Experimental: Test compositions containing sulfentrazone (DISMISS™ Turf Herbicide), quniclorac, (DRIVE® 75 DF Herbicide) or mixture of sulfentrazone and quinclorac in a three to one ratio, prepared as described above, were diluted with water to provide the appropriate test rate concentrations. A nonionic surfactant (0.25%) was added to each test solution.
# The test weeds include Red River crabgrass (Digitaria ciliaris) and yellow nutsedge (Cyperus esculentusi).
# (§3) For post-emergence testing, three disposable 3 inch square pots for each rate of application of each herbicide were filled with a soil, comprised of peat moss, vermiculite, bark ash, pine bark, limestone and a wetting agent, to which 8 to 10 seeds were planted. The pots were placed in a greenhouse and watered daily, thus allowing the seeds to germinate and the foliage to develop.
# (§4) Pots designated for treatment were placed on a conveyor belt and the conveyor belt fed under a spray nozzle mounted about ten inches above the foliage. The spray of herbicidal solution was commenced and once stabilized; the pots were passed under the spray at a speed to receive a coverage equivalent of 30 gallons per acre. The application rates are those shown in Table 3 below for the individual herbicidal solutions and the mixture of sulfentrazone and quinclorac. The post-emergence pots were immediately placed in the green-house and not watered until 24 hours after treatment with the test solution. Thereafter they were regularly watered at ground level. The control of weeds was evaluated in each experimental test from 1 to 22 days after treatment (DAT). The results, shown as an average of the replications, were compared with results observed in untreated control pots in the same tests.
# (§5) Percent control was determined by a method similar to the 0 to 100 rating system disclosed in “Research Methods in Weed Science,” 2nd ed., B. Truelove, Ed.; Southern Weed Science Society; Auburn University, Auburn, Ala., 1977.
# [5] = test system: Ivyleaf Morningglory (Ipomoea hederacea); experiment: Example 4 post-emergence greenhouse pot test, morningglory
# Experimental: Test compositions containing sulfentrazone (75 DF formulation), quniclorac, (DRIVE® 75 DF Herbicide) or mixtures of sulfentrazone and quinclorac at ratios of 1:1 to 1:5, were diluted with water to provide the appropriate test rate concentrations. A nonionic surfactant (0.25%) was added to each test solution. The test weeds include crabgrass (Digitaria sp), Chickweed (Stellaria media), Hemp Sesbania (Sesbania exaltata), Kochia (Kochia scoparia), Ivyleaf Morningglory (Ipomoea hederacea), Redroot Pigweed (Amaranthus retroflexus) and yellow nutsedge (Cyperus esculentusi).
# as §3, with “develop for 22 days, 3 months for Kochia.” for “develop.”
# as §4, with “Table 4” for “Table 3”, “from 2” for “from 1”, “to 20” for “to 22”
# as §5
structure (smiles),measurement,setting,value
"O=C(O)c1c(Cl)ccc2cc(Cl)cnc12 [B, 3,7-dichloro-8-quinolinecarboxylic acid]",Percent Control,[1]; 7 DAT,100%
same,Percent Control,[1]; 14 DAT,100%
same,Percent Control,[1]; 21 DAT,100%
same,Percent Control,[1]; 28 DAT,100%
same,Percent Control,[2]; 7 DAT,43%
same,Percent Control,[2]; 14 DAT,46%
same,Percent Control,[2]; 21 DAT,43%
same,Percent Control,[2]; 28 DAT,41%
same,Percent Control,[2]; 41 DAT,37%
same,Percent Control,[3]; 7 DAT,83%
same,Percent Control,[3]; 14 DAT,100%
same,Percent Control,[3]; 21 DAT,100%
same,Percent Control,"[4]; 1-2 leaf stage, 11 days old, 0.375 lb ai/acre, 1 DAT",0%
same,Percent Control,"[4]; 1-2 leaf stage, 11 days old, 0.375 lb ai/acre, 3 DAT",5%
same,Percent Control,"[4]; 1-2 leaf stage, 11 days old, 0.375 lb ai/acre, 7 DAT",5%
same,Percent Control,"[4]; 1-2 leaf stage, 11 days old, 0.375 lb ai/acre, 14 DAT",0%
same,Percent Control,"[4]; 1-2 leaf stage, 11 days old, 0.375 lb ai/acre, 21 DAT",0%
same,Percent Control,"[4]; 1-2 leaf stage, 11 days old, 0.75 lb ai/acre, 1 DAT",0%
same,Percent Control,"[4]; 1-2 leaf stage, 11 days old, 0.75 lb ai/acre, 3 DAT",10%
same,Percent Control,"[4]; 1-2 leaf stage, 11 days old, 0.75 lb ai/acre, 7 DAT",5%
same,Percent Control,"[4]; 1-2 leaf stage, 11 days old, 0.75 lb ai/acre, 14 DAT",0%
same,Percent Control,"[4]; 1-2 leaf stage, 11 days old, 0.75 lb ai/acre, 21 DAT",0%
same,Percent Control,"[4]; 1-2 leaf stage, 11 days old, 1.0 lb ai/acre, 1 DAT",0%
same,Percent Control,"[4]; 1-2 leaf stage, 11 days old, 1.0 lb ai/acre, 3 DAT",10%
same,Percent Control,"[4]; 1-2 leaf stage, 11 days old, 1.0 lb ai/acre, 7 DAT",10%
same,Percent Control,"[4]; 1-2 leaf stage, 11 days old, 1.0 lb ai/acre, 14 DAT",2%
same,Percent Control,"[4]; 1-2 leaf stage, 11 days old, 1.0 lb ai/acre, 21 DAT",2%
same,Percent Control,"[4]; 3-4 leaf stage, 1-2 tillers, 14 days old, 0.375 lb ai/acre, 1 DAT",0%
same,Percent Control,"[4]; 3-4 leaf stage, 1-2 tillers, 14 days old, 0.375 lb ai/acre, 3 DAT",5%
same,Percent Control,"[4]; 3-4 leaf stage, 1-2 tillers, 14 days old, 0.375 lb ai/acre, 7 DAT",5%
same,Percent Control,"[4]; 3-4 leaf stage, 1-2 tillers, 14 days old, 0.375 lb ai/acre, 14 DAT",0%
same,Percent Control,"[4]; 3-4 leaf stage, 1-2 tillers, 14 days old, 0.375 lb ai/acre, 21 DAT",0%
same,Percent Control,"[4]; 3-4 leaf stage, 1-2 tillers, 14 days old, 0.75 lb ai/acre, 1 DAT",0%
same,Percent Control,"[4]; 3-4 leaf stage, 1-2 tillers, 14 days old, 0.75 lb ai/acre, 3 DAT",5%
same,Percent Control,"[4]; 3-4 leaf stage, 1-2 tillers, 14 days old, 0.75 lb ai/acre, 7 DAT",5%
same,Percent Control,"[4]; 3-4 leaf stage, 1-2 tillers, 14 days old, 0.75 lb ai/acre, 14 DAT",5%
same,Percent Control,"[4]; 3-4 leaf stage, 1-2 tillers, 14 days old, 0.75 lb ai/acre, 21 DAT",0%
same,Percent Control,"[4]; 3-4 leaf stage, 1-2 tillers, 14 days old, 1.0 lb ai/acre, 1 DAT",0%
same,Percent Control,"[4]; 3-4 leaf stage, 1-2 tillers, 14 days old, 1.0 lb ai/acre, 3 DAT",5%
same,Percent Control,"[4]; 3-4 leaf stage, 1-2 tillers, 14 days old, 1.0 lb ai/acre, 7 DAT",10%
same,Percent Control,"[4]; 3-4 leaf stage, 1-2 tillers, 14 days old, 1.0 lb ai/acre, 14 DAT",5%
same,Percent Control,"[4]; 3-4 leaf stage, 1-2 tillers, 14 days old, 1.0 lb ai/acre, 21 DAT",5%
same,Percent Control,"[5]; 0.25 lb ai/acre, 2 DAT",20%
same,Percent Control,"[5]; 0.25 lb ai/acre, 7 DAT",25%
same,Percent Control,"[5]; 0.25 lb ai/acre, 14 DAT",60%
same,Percent Control,"[5]; 0.25 lb ai/acre, 20 DAT",70%
same,Percent Control,"[5]; 0.5 lb ai/acre, 2 DAT",20%
same,Percent Control,"[5]; 0.5 lb ai/acre, 7 DAT",25%
same,Percent Control,"[5]; 0.5 lb ai/acre, 14 DAT",40%
same,Percent Control,"[5]; 0.5 lb ai/acre, 20 DAT",50%
same,Percent Control,"[5]; 0.75 lb ai/acre, 2 DAT",20%
same,Percent Control,"[5]; 0.75 lb ai/acre, 7 DAT",25%
same,Percent Control,"[5]; 0.75 lb ai/acre, 14 DAT",40%
same,Percent Control,"[5]; 0.75 lb ai/acre, 20 DAT",50%
same,Percent Control,"[5]; 1.0 lb ai/acre, 2 DAT",20%
same,Percent Control,"[5]; 1.0 lb ai/acre, 7 DAT",25%
same,Percent Control,"[5]; 1.0 lb ai/acre, 14 DAT",50%
same,Percent Control,"[5]; 1.0 lb ai/acre, 20 DAT",70%
same,Percent Control,"[5]; 1.25 lb ai/acre, 2 DAT",20%
same,Percent Control,"[5]; 1.25 lb ai/acre, 7 DAT",25%
same,Percent Control,"[5]; 1.25 lb ai/acre, 14 DAT",40%
same,Percent Control,"[5]; 1.25 lb ai/acre, 20 DAT",50%
